Measured values: patent US10501518B2 (priority 2013, dated 2019)
Starred links: 1 amine or outer side, 2 acyl side, 3 side chain; linkers in the order of their positions; H or OH if unused. Non-standard residues stand in square brackets, D forms with d. Residues, ends and D or L forms follow the SMILES beside them. *: point of attachment. NH(1S,2S-2-CONH2-cPent) = NC(=O)[C@H]1CCC[C@@H]1N*; β3hW = N[C@H](CC(=O)O)Cc1c[nH]c2ccccc12; X12 = O=C([C@H]1CCC[C@@H]1N[*:1])[*:2]; X13 = O=C([C@H]1CNC[C@@H]1N[*:1])[*:2]; ACPC(1S,2S) = N[C@H]1CCC[C@@H]1C(=O)*; hArg = N=C(N)NCCCC[C@H](N)C(=O)O; β3hE = N[C@@H](CCC(=O)O)CC(=O)O; β3hF = N[C@H](CC(=O)O)Cc1ccccc1; X14 = O=C(C1CCCC1N[*:1])[*:2]; β3hK = NCCCC[C@H](N)CC(=O)O; β3hM = CSCC[C@H](N)CC(=O)O; β3hD = NC(CC(=O)O)CC(=O)O; β3hS = N[C@@H](CO)CC(=O)O; Aib = CC(C)(N)C(=O)O

Target: T1, PTHR (Homo sapiens, UniProt Q03431)
T1 construct: expressed in transfected cells
T1 sequence (Q03431 27-593): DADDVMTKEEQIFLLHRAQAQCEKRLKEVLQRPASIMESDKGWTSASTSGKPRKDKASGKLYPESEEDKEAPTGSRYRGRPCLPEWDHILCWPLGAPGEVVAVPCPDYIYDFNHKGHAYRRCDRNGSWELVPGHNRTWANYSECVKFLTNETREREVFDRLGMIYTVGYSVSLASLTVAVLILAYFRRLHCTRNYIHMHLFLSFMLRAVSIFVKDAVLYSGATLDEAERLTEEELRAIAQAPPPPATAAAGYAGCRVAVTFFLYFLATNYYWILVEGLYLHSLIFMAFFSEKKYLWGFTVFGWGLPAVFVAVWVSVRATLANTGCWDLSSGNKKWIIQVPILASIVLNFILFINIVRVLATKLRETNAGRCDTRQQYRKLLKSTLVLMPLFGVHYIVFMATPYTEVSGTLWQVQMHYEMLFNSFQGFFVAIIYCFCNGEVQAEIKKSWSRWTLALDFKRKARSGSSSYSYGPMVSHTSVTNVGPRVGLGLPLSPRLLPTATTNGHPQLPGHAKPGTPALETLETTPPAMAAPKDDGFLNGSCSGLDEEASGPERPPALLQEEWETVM
Assay: cAMP induction potency, N-terminal modifications and cyclic constraints (Tables 9, 10, 13)
Format: cell-based
Procedure: For cAMP dose-response assays, monolayers of confluent HEK 293 cells were pre-incubated with buffer containing d-luciferin (0.5 mM) in 96 well plates at room temperature until a stable baseline level of luminescence was established (30 min). Varying concentrations of agonist were then added, and the time course of luminescence response was recorded using a Perkin Elmer plate reader following α/β-peptide addition.

Compound | Fold PTH (Table 9) | Fold PTH (Table 10) | further results
CSCC[C@H](NC(=O)[C@H]1CCC[C@@H]1NC(=O)[C@H](CCC(N)=O)NC(=O)[C@H]1CCC[C@@H]1NC(=O)[C@H](CCC(=O)O)NC(=O)[C@H](CO)NC(=O)[C@@H](NC(=O)[C@H]1CCC[C@@H]1N)C(C)C)C(=O)N[C@@H](Cc1c[nH]cn1)C(=O)N[C@@H](CC(N)=O)C(=O)N[C@@H](CC(C)C)C(=O)NCC(=O)N[C@@H](CCCCN)C(=O)N[C@H]1CCC[C@@H]1C(=O)N[C@@H](CC(C)C)C(=O)N[C@@H](CC(N)=O)C(=O)N[C@@H](CO)C(=O)N[C@H]1CCC[C@@H]1C(=O)N[C@@H](CCC(=O)O)C(=O)N[C@@H](CCCNC(=N)N)C(=O)N[C@H](C(=O)N[C@@H](CCC(=O)O)CC(=O)N[C@@H](Cc1c[nH]c2ccccc12)C(=O)N[C@@H](CC(C)C)C(=O)N[C@@H](CCCNC(=N)N)C(=O)N[C@H]1CNC[C@@H]1C(=O)N[C@@H](CCCCN)C(=O)N[C@@H](CC(C)C)C(=O)N[C@@H](CCC(N)=O)C(=O)N[C@@H](CC(=O)O)CC(=O)N[C@H](C(=O)N[C@@H](Cc1c[nH]cn1)C(=O)N[C@@H](CC(N)=O)C(=O)N[C@H]1CCC[C@@H]1C(N)=O)C(C)C)C(C)C [CycD6_ACPC(1,5,7), XVSEXQXMHNLGKXLNSXERVEWLRZKLQDVHNX-NH2] ({ACPC(1S,2S)}-VSE[X12]Q[X12]MHNLGK[X12]LNS[X12]ERV[β3hE]WLR[X13]KLQ[β3hD]VHN-{NH(1S,2S-2-CONH2-cPent)}; N-terminus assumed) | 266 |  | 
CC[C@H](C)[C@H](NC(=O)[C@H](CCC(=O)O)NC(=O)[C@H](CO)NC(=O)[C@@H](NC(=O)[C@H]1CCC[C@@H]1N)C(C)C)C(=O)N[C@@H](CCC(N)=O)C(=O)N[C@H]1CCC[C@@H]1C(=O)N[C@@H](CCSC)C(=O)N[C@@H](Cc1c[nH]cn1)C(=O)N[C@@H](CC(N)=O)C(=O)N[C@@H](CC(C)C)C(=O)NCC(=O)N[C@@H](CCCCN)C(=O)N[C@H]1CCC[C@@H]1C(=O)N[C@@H](CC(C)C)C(=O)N[C@@H](CC(N)=O)C(=O)N[C@@H](CO)C(=O)N[C@H]1CCC[C@@H]1C(=O)N[C@@H](CCC(=O)O)C(=O)N[C@@H](CCCNC(=N)N)C(=O)N[C@H](C(=O)N[C@@H](CCC(=O)O)CC(=O)N[C@@H](Cc1c[nH]c2ccccc12)C(=O)N[C@@H](CC(C)C)C(=O)N[C@@H](CCCNC(=N)N)C(=O)N[C@H]1CNC[C@@H]1C(=O)N[C@@H](CCCCN)C(=O)N[C@@H](CC(C)C)C(=O)N[C@@H](CCC(N)=O)C(=O)N[C@@H](CC(=O)O)CC(=O)N[C@H](C(=O)N[C@@H](Cc1c[nH]cn1)C(=O)N[C@@H](CC(N)=O)C(=O)N[C@H]1CCC[C@@H]1C(N)=O)C(C)C)C(C)C [CycD6_ACPC(1,7), XVSEIQXMHNLGKXLNSXERVEWLRZKLQDVHNX-NH2] ({ACPC(1S,2S)}-VSEIQ[X12]MHNLGK[X12]LNS[X12]ERV[β3hE]WLR[X13]KLQ[β3hD]VHN-{NH(1S,2S-2-CONH2-cPent)}; N-terminus assumed) | 7.3 |  | 
CC[C@H](C)[C@H](NC(=O)[C@H](CCC(=O)O)NC(=O)[C@H](CO)NC(=O)[C@@H](NC(=O)[C@H]1CCC[C@@H]1N)C(C)C)C(=O)N[C@@H](CCC(N)=O)C(=O)N[C@H]1CCC[C@@H]1C(=O)N[C@@H](CCSC)C(=O)N[C@@H](Cc1c[nH]cn1)C(=O)N[C@@H](CC(N)=O)C(=O)N[C@@H](CC(C)C)C(=O)NCC(=O)N[C@@H](CCCCN)C(=O)N[C@H]1CCC[C@@H]1C(=O)N[C@@H](CC(C)C)C(=O)N[C@@H](CC(N)=O)C(=O)N[C@@H](CO)C(=O)N[C@H]1CCC[C@@H]1C(=O)N[C@@H](CCC(=O)O)C(=O)N[C@@H](CCCNC(=N)N)C(=O)N[C@H](C(=O)N[C@H]1CNC[C@@H]1C(=O)N[C@@H](Cc1c[nH]c2ccccc12)C(=O)N[C@@H](CC(C)C)C(=O)N[C@@H](CCCNC(=N)N)C(=O)N[C@H]1CNC[C@@H]1C(=O)N[C@@H](CCCCN)C(=O)N[C@@H](CC(C)C)C(=O)N[C@@H](CCC(N)=O)C(=O)N[C@H]1CCC[C@@H]1C(=O)N[C@H](C(=O)N[C@@H](Cc1c[nH]cn1)C(=O)N[C@@H](CC(N)=O)C(=O)N[C@H]1CCC[C@@H]1C(N)=O)C(C)C)C(C)C [FcycD6_ACPC(1,7), XVSEIQXMHNLGKXLNSXERVZWLRZKLQXVHNX-NH2] ({ACPC(1S,2S)}-VSEIQ[X12]MHNLGK[X12]LNS[X12]ERV[X13]WLR[X13]KLQ[X12]VHN-{NH(1S,2S-2-CONH2-cPent)}; N-terminus assumed) | 8.7 |  | 
CSCC[C@H](NC(=O)[C@H]1CCC[C@@H]1NC(=O)[C@H](CCC(N)=O)NC(=O)[C@H]1CCC[C@@H]1NC(=O)[C@H](CCC(=O)O)NC(=O)[C@H](CO)NC(=O)[C@@H](NC(=O)C[C@@H](N)CO)C(C)C)C(=O)N[C@@H](Cc1c[nH]cn1)C(=O)N[C@@H](CC(N)=O)C(=O)N[C@@H](CC(C)C)C(=O)NCC(=O)N[C@@H](CCCCN)C(=O)N[C@H]1CCC[C@@H]1C(=O)N[C@@H](CC(C)C)C(=O)N[C@@H](CC(N)=O)C(=O)N[C@@H](CO)C(=O)N[C@H]1CCC[C@@H]1C(=O)N[C@@H](CCC(=O)O)C(=O)N[C@@H](CCCNC(=N)N)C(=O)N[C@H](C(=O)N[C@H]1CNC[C@@H]1C(=O)N[C@@H](Cc1c[nH]c2ccccc12)C(=O)N[C@@H](CC(C)C)C(=O)N[C@@H](CCCNC(=N)N)C(=O)N[C@H]1CNC[C@@H]1C(=O)N[C@@H](CCCCN)C(=O)N[C@@H](CC(C)C)C(=O)N[C@@H](CCC(N)=O)C(=O)N[C@H]1CCC[C@@H]1C(=O)N[C@H](C(=O)N[C@@H](Cc1c[nH]cn1)C(=O)N[C@@H](CC(N)=O)C(=O)N[C@H]1CCC[C@@H]1C(N)=O)C(C)C)C(C)C [FcycD6_β^3Ser1, ACPC(5, 7, SVSEXQXMHNLGKXLNSXERVZWLRZKLQXVHNX-NH2] (H-[β3hS]VSE[X12]Q[X12]MHNLGK[X12]LNS[X12]ERV[X13]WLR[X13]KLQ[X12]VHN-{NH(1S,2S-2-CONH2-cPent)}; N-terminus assumed) |  |  | EC50 (Table 13, non M-PTH analogs, read-out: cAMP, EC50 nM ± SEM): 0.79 nM
CC[C@H](C)[C@H](NC(=O)[C@H](CCC(=O)O)NC(=O)[C@H](C)NC(=O)[C@@H](NC(=O)[C@H](C)N)C(C)C)C(=O)N[C@@H](CCC(N)=O)C(=O)NC1CCCC1C(=O)N[C@@H](CCSC)C(=O)N[C@@H](Cc1c[nH]cn1)C(=O)N[C@@H](CCC(N)=O)C(=O)N[C@@H](CCCCNC(=N)N)C(=O)N[C@@H](C)C(=O)N[C@@H](CCCCN)C(=O)N[C@H](CC(=O)N[C@@H](CC(C)C)C(=O)N[C@@H](CC(N)=O)C(=O)N[C@@H](CO)C(=O)N[C@@H](CCSC)CC(=O)N[C@@H](CCCNC(=N)N)C(=O)N[C@@H](CCCNC(=N)N)C(=O)N[C@H](C(=O)N[C@@H](CCC(=O)O)CC(=O)N[C@@H](Cc1c[nH]c2ccccc12)C(=O)N[C@@H](CC(C)C)C(=O)N[C@@H](CCCNC(=N)N)C(=O)N[C@@H](CCCCN)CC(=O)N[C@@H](CCCCN)C(=O)N[C@@H](CC(C)C)C(=O)N[C@@H](CCC(N)=O)C(=O)N[C@@H](CC(=O)O)CC(=O)N[C@H](C(=O)N[C@@H](Cc1c[nH]cn1)C(=O)N[C@@H](CC(N)=O)C(=O)N[C@H](CC(N)=O)Cc1ccccc1)C(C)C)C(C)C)Cc1c[nH]c2ccccc12 (stereo partly drawn) [M-D6] (H-AVAEIQ[X14]MHQ[hArg]AK[β3hW]LNS[β3hM]RRV[β3hE]WLR[β3hK]KLQ[β3hD]VHN[β3hF]-NH2; N-terminus assumed) |  | 5.4 | 
CC[C@H](C)[C@H](NC(=O)[C@H](CCC(=O)O)NC(=O)C(C)(C)NC(=O)[C@@H](NC(=O)[C@H]1CCC[C@@H]1N)C(C)C)C(=O)N[C@@H](CCC(N)=O)C(=O)N[C@H]1CCC[C@@H]1C(=O)N[C@@H](CCSC)C(=O)N[C@@H](Cc1c[nH]cn1)C(=O)N[C@@H](CCC(N)=O)C(=O)N[C@@H](CCCCNC(=N)N)C(=O)N[C@@H](C)C(=O)N[C@@H](CCCCN)C(=O)N[C@H]1CCC[C@@H]1C(=O)N[C@@H](CC(C)C)C(=O)N[C@@H](CC(N)=O)C(=O)N[C@@H](CO)C(=O)N[C@H]1CCC[C@@H]1C(=O)N[C@@H](CCCNC(=N)N)C(=O)N[C@@H](CCCNC(=N)N)C(=O)N[C@H](C(=O)N[C@H]1CNC[C@@H]1C(=O)N[C@@H](Cc1c[nH]c2ccccc12)C(=O)N[C@@H](CC(C)C)C(=O)N[C@@H](CCCNC(=N)N)C(=O)N[C@H]1CNC[C@@H]1C(=O)N[C@@H](CCCCN)C(=O)N[C@@H](CC(C)C)C(=O)N[C@@H](CCC(N)=O)C(=O)N[C@H]1CCC[C@@H]1C(=O)N[C@H](C(=O)N[C@@H](Cc1c[nH]cn1)C(=O)N[C@@H](CC(N)=O)C(=O)N[C@H]1CCC[C@@H]1C(N)=O)C(C)C)C(C)C [M-FcycD6_ACPC(1,7), XVUEIQXMHQ^hRAKXLNSXRRVZWLRZKLQXVHNX-NH2] ({ACPC(1S,2S)}-V[Aib]EIQ[X12]MHQ[hArg]AK[X12]LNS[X12]RRV[X13]WLR[X13]KLQ[X12]VHN-{NH(1S,2S-2-CONH2-cPent)}; N-terminus assumed) |  | 21.8 | 
